Data on 16 compounds can be found in patent US20260207563A1, “UREA COMPOUNDS AS ACTIVATORS OF POTASSIUM CHANNELS KV7.2/7.3 USEFUL IN THE TREATMENT OF CNS AND PNS DISORDERS” (ANGELINI PHARMA S.P.A., priority 2022, published 2026).

SMILES strings stand for the structures.

What all share (type): cell-based
In assay [1] the target is T1, heteromeric KV7.2/KV7.3 channels (KCNQ2, KCNQ3) (Homo sapiens, UniProt O43525+O43526).
T1 construct: expressed in transfected cells; host or cells: CHO-K1
As to the kind of experiment: Automated patch-clamp (Sophion Qube 384) potency assay against KV7.2/KV7.3 channels. The following applies: CHO-K1/Kv7.2/Kv7.3 cells; for EC50: EC50 from concentration-response of shift in Vhalf, 10 concentrations up to 30 μM, read-out: Kv7.2/7.3 EC50; for Kv7.2/7.3 ΔV1/2: maximal shift in the Vhalf from the top of the curve. Summed up:
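Whole-cell automated patch clamp on CHO-K1 cells stably expressing human KV7.2/KV7.3, held at −80 mV; I-V steps −100 to +20 mV (1 s) with 0 mV tail pulses, Boltzmann-fitted activation curves. Ten concentrations (1:3 from 30 μM, quadruplicate) versus 0.3% DMSO control; EC50 and maximal shift from 4-parameter fits of Vhalf shift.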
A general note: The patch-clamp technique gives a direct electrical read-out from membranes.

For assay [2], the target named is T2, heteromeric KV7.3/KV7.5 channel (KCNQ3, KCNQ5) (Homo sapiens, UniProt O43525+Q9NR82).
T2 construct: host or cells: HEK293
As to the kind of experiment: Automated patch-clamp counter-screening against KV7.3/KV7.5 channel. The following applies: HEK293 cells expressing Kv7.3/KV7.5; class by maximal shift in the Vhalf at 30 μM. Summed up: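 HEK293 cells with constitutive Kv7.3 and tetracycline-inducible Kv7.5 were recorded by automated patch clamp. Ten concentrations (1:3 series from 30 μM, quadruplicate) were tested; Vhalf shifts were fitted with a 4-parameter logistic to give EC50 and maximal Vhalf shift, with selectivity based on the shift at 30 μM.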

The target of assay [3] is T3, homomeric KV7.4 channel (KCNQ4) (Homo sapiens, UniProt P56696).
T3 construct: host or cells: CHO-K1
Description: Automated patch-clamp (Qube) counter-screening assay against KV7.4 channel. Particulars: CHO-K1 cells expressing KV7.4; class by maximal shift in the Vhalf at 30 μM. In a few lines:
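CHO-K1 cells stably expressing homomeric human KV7.4 were recorded on the Qube automated patch clamp. Ten concentrations (1:3 dilutions from 30 μM) were tested in quadruplicate. The mean Vhalf shift was fitted with a 4-parameter logistic to give EC50 and maximal Vhalf shift, and selectivity was based on the shift at 30 μM.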

Regarding `O=C(NCCC1(C(F)(F)F)CC1)NCc1ccnc(OCc2ncco2)c1` [Compound 13, 1-((2-(Oxazol-2-ylmethoxy)pyridin-4-yl)methyl)-3-(2-(1-(trifluoromethyl)cyclopropyl)ethyl)urea], in assay [1], the EC50 was found to be 4450 nM and the “Kv7.2/7.3 ΔV1/2” value turned out to be 22.29 mV. Besides, the Kv7.3/7.5 selectivity criteria result in assay [2] was “A (Selective compounds showed Kv7.4 and/or Kv7.3/7.5 ΔV1/2 equal to or lower than 15 mV (letter A in table 3))”. Also, in assay [3], the Kv7.4 selectivity criteria entry is on record as “A (Selective compounds showed Kv7.4 and/or Kv7.3/7.5 ΔV1/2 equal to or lower than 15 mV (letter A in table 3))”.

With `O=C(NCc1ccnc(OCC(F)(F)F)c1)Nc1cccc2c1CCC2` [Compound 154], in assay [1], the EC50 was determined as 617 nM and the “Kv7.2/7.3 ΔV1/2” value worked out at 24.51 mV. In assay [2], the Kv7.3/7.5 selectivity criteria result was “A (Selective compounds showed Kv7.4 and/or Kv7.3/7.5 ΔV1/2 equal to or lower than 15 mV (letter A in table 3))”. For the same compound, in assay [3], the Kv7.4 selectivity criteria entry is “A (Selective compounds showed Kv7.4 and/or Kv7.3/7.5 ΔV1/2 equal to or lower than 15 mV (letter A in table 3))”.

Turning to `O=C(NCCC1(C(F)(F)F)CC1)NCc1cccc(OCC(F)(F)F)n1` [Compound 31, 1-((6-(2,2,2-Trifluoroethoxy)pyridin-2-yl)methyl)-3-(2-(1-(trifluoromethyl)cyclopropyl)ethyl)urea], in assay [1], the EC50 was determined as 3080 nM and the “Kv7.2/7.3 ΔV1/2” value worked out at 25.36 mV. In addition, the Kv7.3/7.5 selectivity criteria result in assay [2] was “B (Non-selective compounds showed Kv7.4 and/or Kv7.3/7.5 ΔV1/2 higher than 15 mV (letter B in table 3))”. Further, the Kv7.4 selectivity criteria entry in assay [3] was “A (Selective compounds showed Kv7.4 and/or Kv7.3/7.5 ΔV1/2 equal to or lower than 15 mV (letter A in table 3))”.

Regarding `Cc1ccc2c(c1)[C@@H](NC(=O)NCc1ccnc(OCC(F)(F)F)c1)CC2` [Compound 159], in assay [1], the EC50 worked out at 1550 nM and the “Kv7.2/7.3 ΔV1/2” value was determined as 15.05 mV. Also, the Kv7.3/7.5 selectivity criteria entry in assay [2] is given as “A (Selective compounds showed Kv7.4 and/or Kv7.3/7.5 ΔV1/2 equal to or lower than 15 mV (letter A in table 3))”. For the same compound, the Kv7.4 selectivity criteria result in assay [3] was “A (Selective compounds showed Kv7.4 and/or Kv7.3/7.5 ΔV1/2 equal to or lower than 15 mV (letter A in table 3))”.

Regarding `O=C(NCc1ccnc(OCC(F)(F)F)c1)N[C@H]1c2ccccc2C[C@@H]1O` [Compound 123], in assay [1], the EC50 was 6670 nM and the “Kv7.2/7.3 ΔV1/2” value is 25.23 mV. Also, in assay [2], the Kv7.3/7.5 selectivity criteria entry is listed as “A (Selective compounds showed Kv7.4 and/or Kv7.3/7.5 ΔV1/2 equal to or lower than 15 mV (letter A in table 3))”. Also, the Kv7.4 selectivity criteria entry in assay [3] is recorded as “A (Selective compounds showed Kv7.4 and/or Kv7.3/7.5 ΔV1/2 equal to or lower than 15 mV (letter A in table 3))”.

As to `O=C(NCc1ccnc(OCC(F)(F)F)c1)NCc1cc(F)ccc1Cl` [Compound 85, 1-(2-Chloro-5-fluorobenzyl)-3-((2-(2,2,2-trifluoroethoxy)pyridin-4-yl)methyl)urea], in assay [1], the EC50 came to 206 nM and the “Kv7.2/7.3 ΔV1/2” value amounted to 20.49 mV. Besides, in assay [2], the Kv7.3/7.5 selectivity criteria entry is reported as “A (Selective compounds showed Kv7.4 and/or Kv7.3/7.5 ΔV1/2 equal to or lower than 15 mV (letter A in table 3))”. Besides, the Kv7.4 selectivity criteria result in assay [3] is “A (Selective compounds showed Kv7.4 and/or Kv7.3/7.5 ΔV1/2 equal to or lower than 15 mV (letter A in table 3))”.

Consider `O=C(NCCC1(C(F)(F)F)CC1)NCc1cc(OCc2ccc(F)cc2)nc(N2CCOCC2)c1` [Compound 27, 1-((2-((4-Fluorobenzyl)oxy)-6-morpholinopyridin-4-yl)methyl)-3-(2-(1-(trifluoromethyl)cyclopropyl)ethyl)urea], for which, in assay [1], the EC50 worked out at 8020 nM and the “Kv7.2/7.3 ΔV1/2” value was 18.22 mV. In addition, the Kv7.3/7.5 selectivity criteria result in assay [2] is “B (Non-selective compounds showed Kv7.4 and/or Kv7.3/7.5 ΔV1/2 higher than 15 mV (letter B in table 3))”. Besides, in assay [3], the Kv7.4 selectivity criteria entry is on record as “B (Non-selective compounds showed Kv7.4 and/or Kv7.3/7.5 ΔV1/2 higher than 15 mV (letter B in table 3))”.

As for `O=C(NCc1ccnc(OCC(F)(F)F)c1)N[C@H]1c2ccccc2C[C@H]1CO` [Compound 151], in assay [1], the EC50 was 11200 nM and the “Kv7.2/7.3 ΔV1/2” value came to 23.51 mV. The Kv7.3/7.5 selectivity criteria result in assay [2] was “A (Selective compounds showed Kv7.4 and/or Kv7.3/7.5 ΔV1/2 equal to or lower than 15 mV (letter A in table 3))”. In assay [3], the Kv7.4 selectivity criteria entry was “A (Selective compounds showed Kv7.4 and/or Kv7.3/7.5 ΔV1/2 equal to or lower than 15 mV (letter A in table 3))”.

Turning to `O=C(NCCC1(C(F)(F)F)CC1)NCc1ccnc(OCc2ncccc2F)c1` [Compound 54, 1-((2-((3-Fluoropyridin-2-yl)methoxy)pyridin-4-yl)methyl)-3-(2-(1-(trifluoromethyl)cyclopropyl)ethyl)urea], in assay [1], the EC50 was 7610 nM and the “Kv7.2/7.3 ΔV1/2” value is 22.67 mV. Also, the Kv7.3/7.5 selectivity criteria result in assay [2] was “A (Selective compounds showed Kv7.4 and/or Kv7.3/7.5 ΔV1/2 equal to or lower than 15 mV (letter A in table 3))”. For the same compound, the Kv7.4 selectivity criteria entry in assay [3] is “A (Selective compounds showed Kv7.4 and/or Kv7.3/7.5 ΔV1/2 equal to or lower than 15 mV (letter A in table 3))”.

As to `O=C(NCc1ccnc(OCC(F)(F)F)c1)NC1CCC(F)(F)CC1` [Compound 71, 1-(4,4-Difluorocyclohexyl)-3-((2-(2,2,2-trifluoroethoxy)pyridin-4-yl)methyl)urea], in assay [1], the EC50 was 1580 nM and the “Kv7.2/7.3 ΔV1/2” value was 55.93 mV. In addition, the Kv7.3/7.5 selectivity criteria entry in assay [2] is recorded as “B (Non-selective compounds showed Kv7.4 and/or Kv7.3/7.5 ΔV1/2 higher than 15 mV (letter B in table 3))”. For the same compound, the Kv7.4 selectivity criteria result in assay [3] is on record as “B (Non-selective compounds showed Kv7.4 and/or Kv7.3/7.5 ΔV1/2 higher than 15 mV (letter B in table 3))”.

For the compound `O=C(NCc1ccnc(OCC(F)(F)F)c1)Nc1cccc2c1OCCC2` [Compound 140], in assay [1], the EC50 was 3100 nM and the “Kv7.2/7.3 ΔV1/2” value was determined as 25.85 mV. In addition, the Kv7.3/7.5 selectivity criteria result in assay [2] was “A (Selective compounds showed Kv7.4 and/or Kv7.3/7.5 ΔV1/2 equal to or lower than 15 mV (letter A in table 3))”. In assay [3], the Kv7.4 selectivity criteria entry was “A (Selective compounds showed Kv7.4 and/or Kv7.3/7.5 ΔV1/2 equal to or lower than 15 mV (letter A in table 3))”.

For `O=C(N[C@@H](CO)c1ccnc(OCC(F)(F)F)c1)N[C@H]1CCc2ccc(F)cc21` [Compound 99], in assay [1], the EC50 is 12800 nM and the “Kv7.2/7.3 ΔV1/2” value is given as 29.92 mV. The Kv7.3/7.5 selectivity criteria entry in assay [2] is given as “B (Non-selective compounds showed Kv7.4 and/or Kv7.3/7.5 ΔV1/2 higher than 15 mV (letter B in table 3))”. Moreover, the Kv7.4 selectivity criteria result in assay [3] is listed as “B (Non-selective compounds showed Kv7.4 and/or Kv7.3/7.5 ΔV1/2 higher than 15 mV (letter B in table 3))”.

With `O=C(NCc1ccnc(OCC(F)(F)F)c1)NC1CCc2ccc(C(F)(F)F)cc21` (stereo not shown) [Compound 117], in assay [1], the EC50 amounted to 1900 nM and the “Kv7.2/7.3 ΔV1/2” value is 20.5 mV. For the same compound, the Kv7.3/7.5 selectivity criteria entry in assay [2] is “A (Selective compounds showed Kv7.4 and/or Kv7.3/7.5 ΔV1/2 equal to or lower than 15 mV (letter A in table 3))”. Also, the Kv7.4 selectivity criteria result in assay [3] was “A (Selective compounds showed Kv7.4 and/or Kv7.3/7.5 ΔV1/2 equal to or lower than 15 mV (letter A in table 3))”.

Consider `O=C(NCCC1(C(F)(F)F)CC1)NCc1ccnc(OCc2ccccc2F)c1` [Compound 19, 1-((2-((2-Fluorobenzyl)oxy)pyridin-4-yl)methyl)-3-(2-(1-(trifluoromethyl)cyclopropyl)ethyl)urea], for which, in assay [1], the EC50 is 263 nM and the “Kv7.2/7.3 ΔV1/2” value was found to be 23.76 mV. Besides, the Kv7.3/7.5 selectivity criteria entry in assay [2] is recorded as “A (Selective compounds showed Kv7.4 and/or Kv7.3/7.5 ΔV1/2 equal to or lower than 15 mV (letter A in table 3))”. Moreover, the Kv7.4 selectivity criteria result in assay [3] was “A (Selective compounds showed Kv7.4 and/or Kv7.3/7.5 ΔV1/2 equal to or lower than 15 mV (letter A in table 3))”.

As to `O=C(NCc1ccnc(OCC(F)(F)F)c1)NCC1CCC(F)(F)C1` (stereo not shown) [Compound 88, 1-((3,3-Difluorocyclopentyl)methyl)-3-((2-(2,2,2-trifluoroethoxy)pyridin-4-yl)methyl) urea], in assay [1], the EC50 turned out to be 960 nM and the “Kv7.2/7.3 ΔV1/2” value is 30.26 mV. Also, the Kv7.3/7.5 selectivity criteria result in assay [2] is on record as “B (Non-selective compounds showed Kv7.4 and/or Kv7.3/7.5 ΔV1/2 higher than 15 mV (letter B in table 3))”. The Kv7.4 selectivity criteria entry in assay [3] is reported as “A (Selective compounds showed Kv7.4 and/or Kv7.3/7.5 ΔV1/2 equal to or lower than 15 mV (letter A in table 3))”.

Turning to `O=C(NCCC1(C(F)(F)F)CC1)NCc1cc(OCC(F)(F)F)ncc1F` [Compound 87, 1-((5-Fluoro-2-(2,2,2-trifluoroethoxy)pyridin-4-yl)methyl)-3-(2-(1-(trifluoromethyl)cyclopropyl)ethyl)urea], in assay [1], the EC50 was found to be 1850 nM and the “Kv7.2/7.3 ΔV1/2” value was determined as 27.66 mV. Further, the Kv7.3/7.5 selectivity criteria result in assay [2] is on record as “A (Selective compounds showed Kv7.4 and/or Kv7.3/7.5 ΔV1/2 equal to or lower than 15 mV (letter A in table 3))”. The Kv7.4 selectivity criteria entry in assay [3] is “A (Selective compounds showed Kv7.4 and/or Kv7.3/7.5 ΔV1/2 equal to or lower than 15 mV (letter A in table 3))”.
